Results as given in ChEMBL document CHEMBL2390825, “A bioassay-driven discovery of an unexpected selenophene and its cytotoxicity” (Bioorg Med Chem Lett, 2013).
Calls of active or inactive are those of the source. The rule behind the calls is not given here.

What was measured:
518A2 [1] = test: Induction of apoptosis in human 518A2 cells assessed as total apoptotic cells at 50 uM after 6 hrs by Annexin V FITC and propidium iodide staining by FACS analysis; assay type: functional
[2] = Cell cycle arrest in human 518A2 cells assessed as accumulation at S phase at 50 uM after 24 hrs by propidium iodide staining (reference value: 44.643%); assay type: functional, cell-based
[3] = Cell cycle arrest in human 518A2 cells assessed as accumulation at G1/G0 phase at 50 uM after 24 hrs by propidium iodide staining (reference value: 46.662%); assay type: functional, cell-based
HT-29 = test: Cytotoxicity against human HT-29 cells after 96 hrs by SRB assay; assay type: functional, cell-based
[4] = Cytotoxicity against human 518A2 cells after 96 hrs by SRB assay; assay type: functional, cell-based
[5] = Cell cycle arrest in human 518A2 cells assessed as accumulation at G2/M phase at 50 uM after 24 hrs by propidium iodide staining (reference value: 8.694%); assay type: functional, cell-based
A549 = test: Cytotoxicity against human A549 cells after 96 hrs by SRB assay; assay type: functional, cell-based
518A2 [6] = test: Induction of apoptosis in human 518A2 cells assessed as viable cells at 50 uM after 6 hrs by Annexin V FITC and propidium iodide staining by FACS analysis; assay type: functional; settings: 518A2, 6 h, read-out: Activity
518A2 [7] = test: Induction of apoptosis in human 518A2 cells assessed as necrotic cells at 50 uM after 6 hrs by Annexin V FITC and propidium iodide staining by FACS analysis; assay type: functional
8505C = test: Cytotoxicity against human 8505C cells after 96 hrs by SRB assay; assay type: functional, cell-based
MCF7 = test: Cytotoxicity against human MCF7 cells after 96 hrs by SRB assay; assay type: functional, cell-based
518A2 [8] = test: Induction of apoptosis in human 518A2 cells assessed as formation of DNA ladder at 50 uM after 24 hrs using AO/PI dye by fluorescence microscopic analysis; assay type: functional, cell-based
NIH3T3 = test: Cytotoxicity against mouse NIH/3T3 cells after 96 hrs by SRB assay; assay type: cell-based
A2780 = test: Cytotoxicity against human A2780 cells after 96 hrs by SRB assay; assay type: functional, cell-based
518A2 [9] = test: Induction of apoptosis in human 518A2 cells assessed as total apoptotic cells at 30 uM after 6 hrs by Annexin V FITC and propidium iodide staining by FACS analysis; assay type: functional
518A2 [10] = test: Induction of apoptosis in human 518A2 cells assessed as viable cells at 30 uM after 6 hrs by Annexin V FITC and propidium iodide staining by FACS analysis; assay type: functional; settings: 518A2, 6 h, read-out: Activity
[11] = Cell cycle arrest in human 518A2 cells assessed as accumulation at G1/G0 phase at 30 uM after 24 hrs by propidium iodide staining (reference value: 46.662%); assay type: functional, cell-based
[12] = Cell cycle arrest in human 518A2 cells assessed as accumulation at G2/M phase at 30 uM after 24 hrs by propidium iodide staining (reference value: 8.694%); assay type: functional, cell-based
[13] = Cell cycle arrest in human 518A2 cells assessed as accumulation at S phase at 30 uM after 24 hrs by propidium iodide staining (reference value: 44.643%); assay type: functional, cell-based
518A2 [14] = test: Induction of apoptosis in human 518A2 cells assessed as necrotic cells at 30 uM after 6 hrs by Annexin V FITC and propidium iodide staining by FACS analysis; assay type: functional

Structure (SMILES)	Activity (518A2 [1]) [%]	Activity [2] [%]	Activity [3] [%]	IC50 (HT-29) [µmol]	IC50 [4] [µmol]	Activity [5] [%]	IC50 (A549) [µmol]	viability at 50 µM (518A2 [6]) [%]	Activity (518A2 [7]) [%]	IC50 (8505C) [µmol]	IC50 (MCF7) [µmol]	Activity (518A2 [8])	IC50 (NIH3T3) [µmol]	IC50 (A2780) [µmol]	Activity (518A2 [9]) [%]	viability at 30 µM (518A2 [10]) [%]	Activity [11] [%]	Activity [12] [%]	Activity [13] [%]	Activity (518A2 [14]) [%]
COC(=O)[C@@]1(C)CC[C@]2(C)CC[C@]3(C)c4c([se]c1c42)C(=O)[C@@H]1[C@@]2(C)CC[C@H](OC(C)=O)C(C)(C)[C@@H]2CC[C@]13C	13.2	8	9	67.2	36.7	-86	46.9	-15	1.8	42.2	45.6	Active	46.1	33.7	–	–	–	–	–	–
COC(=O)[C@@]1(C)CC[C@]2(C)CC[C@]3(C)[C@@]4(C(=O)OC1=C24)C(=O)[C@@H]1[C@@]2(C)CC[C@H](OC(C)=O)C(C)(C)[C@@H]2CC[C@]13C	–	–	–	58.7	14.7	–	15	–	–	73.2	33.5	–	38.1	19.7	3.9	-4.3	11	-15	-8	0.5
COC(=O)[C@@]1(C)CC[C@]2(C)CC[C@]3(C)C(=CC(=O)[C@@H]4[C@@]5(C)CC[C@H](OC(C)=O)C(C)(C)[C@@H]5CC[C@]43C)[C@@H]2C1	16.8	4	-2	77.4	26.1	-7	42.6	-19.3	2.5	116.4	51.6	–	101.4	40.5	–	–	–	–	–	–
